Our source for the EC50 values is PubChem BioAssay AID2510 (The Scripps Research Institute Molecular Screening Center, 2010).

In general, EC50 refers to the midpoint of the concentration-response curve.

The target of the assay is Mucolipin-3 (Homo sapiens) (UniProt Q8TDD5). Kind of assay: TRPML3 agonist potency, dose response, cell-based, calcium fluorescence (AID 2510). As to conditions: TRPML3-expressing cells, agonist mode.
Mucolipin-3 (Homo sapiens), sequence (Q8TDD5 whole entry, looked up): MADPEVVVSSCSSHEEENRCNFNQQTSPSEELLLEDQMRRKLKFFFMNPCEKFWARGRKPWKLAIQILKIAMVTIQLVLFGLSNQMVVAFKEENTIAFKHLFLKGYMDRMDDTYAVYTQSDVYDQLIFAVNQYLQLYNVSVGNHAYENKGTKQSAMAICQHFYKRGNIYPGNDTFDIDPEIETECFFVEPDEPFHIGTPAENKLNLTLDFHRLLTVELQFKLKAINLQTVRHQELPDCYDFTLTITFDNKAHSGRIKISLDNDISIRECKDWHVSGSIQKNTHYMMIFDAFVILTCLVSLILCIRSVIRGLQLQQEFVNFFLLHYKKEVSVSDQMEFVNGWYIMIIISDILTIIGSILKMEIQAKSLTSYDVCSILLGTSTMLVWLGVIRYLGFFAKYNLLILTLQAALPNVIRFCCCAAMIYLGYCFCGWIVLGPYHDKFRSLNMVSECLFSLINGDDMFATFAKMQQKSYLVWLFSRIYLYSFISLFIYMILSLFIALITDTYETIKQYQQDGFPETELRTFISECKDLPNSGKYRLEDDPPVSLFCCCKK

With `CCOc1ccc(S(=O)(=O)N2CCCCC2)c(C)c1C`, the EC50 is 1800 nM.
